The values that follow come from PubChem BioAssay (NCI).

Some test systems named below: MOLT-4 leukemia; RPMI-8226 leukemia; TK-10 renal; NCI-H460 lung; SR leukemia; K-562 leukemia; MDA-MB-435; SN12C renal; A549 NSCLC; BT-549 breast; HOP-62 NSCLC; HCT-116 colon; UACC-257 melanoma; LOX IMVI melanoma; HCC-2998 colon; SK-MEL-28 melanoma; HT29 colon; 786-0 renal; SNB-19 CNS.
Common to all, as to experiment: growth of human tumour cells (NCI), 48 h

SMILES strings stand for the structures.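 How tested: cells in 96-well plates exposed to compound for 48 hours at five concentrations. Definition used: TGI = concentration required for complete inhibition of growth.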 Some results are limits rather than exact numbers.

Turning to `OC[P+](CO)(CO)C12CC3CC(CC(C3)C1)C2`, the TGI is > 80.9 µM in the assay with MOLT-4 leukemia; 59.2 µM with RPMI-8226 leukemia; > 100 µM in the assay with TK-10 renal; > 100 µM in the assay with NCI-H460 lung; > 82 µM in the assay with SR leukemia; > 100 µM in the assay with K-562 leukemia. Moreover, the TGI in the assay on MDA-MB-435, in the assay on SN12C renal, in the assay with A549 NSCLC, in the assay with BT-549 breast, in the assay on HOP-62 NSCLC and with HCT-116 colon was > 100 µM in each case. For the same molecule, the TGI in the assay on UACC-257 melanoma was > 100 µM; in the assay with LOX IMVI melanoma it was > 29.8 µM; in the assay on HCC-2998 colon it was > 100 µM; in the assay with SK-MEL-28 melanoma it was > 100 µM; with HT29 colon it was > 100 µM; in the assay on 786-0 renal, > 26 µM. Moreover, the TGI in the assay with SNB-19 CNS was > 100 µM.

Consider `Cc1cc(C)c(O)c(CN2CCN(C(C)C)CCN(C(C)C)CC2)c1`, for which the TGI in the assay on MOLT-4 leukemia was 47.3 µM; in the assay on RPMI-8226 leukemia, > 100 µM; in the assay on TK-10 renal, > 100 µM; in the assay on NCI-H460 lung, > 100 µM; in the assay on SR leukemia it was 64 µM; with K-562 leukemia, > 100 µM. The TGI in the assay on MDA-MB-435 was 64.4 µM; in the assay on SN12C renal, 83.9 µM; in the assay on A549 NSCLC it was > 100 µM; with BT-549 breast it was 54 µM; with HCT-116 colon, 85.2 µM; with UACC-257 melanoma, 35.5 µM. The TGI in the assay on LOX IMVI melanoma is 42.6 µM; in the assay on HCC-2998 colon, 40.8 µM; with SK-MEL-28 melanoma, 72.8 µM; in the assay with 786-0 renal it was > 100 µM; with SNB-19 CNS, > 100 µM.

Consider `CCOC(=O)C1(N)CCc2[nH][nH]c(=O)c2C1` (stereo not given), for which the TGI with MOLT-4 leukemia, in the assay on RPMI-8226 leukemia, in the assay on TK-10 renal, in the assay on NCI-H460 lung, with SR leukemia and in the assay with K-562 leukemia was > 100 µM each time. Also, the TGI with MDA-MB-435, in the assay with A549 NSCLC, with BT-549 breast, with HOP-62 NSCLC, with HCT-116 colon and in the assay on UACC-257 melanoma was > 100 µM throughout. The TGI in the assay on LOX IMVI melanoma, in the assay on HCC-2998 colon, in the assay with SK-MEL-28 melanoma, with HT29 colon, in the assay with 786-0 renal and with SNB-19 CNS was > 100 µM throughout.

On to `C#C/C=C\CCCCCCCCCCCCCC/C=C\CCCCC#CC(O)C#CCCCC/C=C\CCCCCC/C=C/C(O)C#C` (stereo not given), for which the TGI was > 68 µM with MOLT-4 leukemia; > 49 µM in the assay with TK-10 renal; > 75 µM with NCI-H460 lung; > 60.8 µM with SR leukemia; > 75 µM in the assay on K-562 leukemia; 17.2 µM with MDA-MB-435. For the same molecule, the TGI is > 75 µM with SN12C renal; 37.1 µM in the assay on A549 NSCLC; > 75 µM with BT-549 breast; > 75 µM with HOP-62 NSCLC; > 32.8 µM in the assay on HCT-116 colon; > 63.4 µM with UACC-257 melanoma. Also, the TGI in the assay with LOX IMVI melanoma is 8.75 µM; in the assay with HCC-2998 colon, 37 µM; in the assay on SK-MEL-28 melanoma it was > 72 µM; in the assay on HT29 colon, > 48.8 µM; with 786-0 renal it was 26.7 µM; in the assay with SNB-19 CNS, > 75 µM.

With `Nc1ccc(Oc2ccc(C3(c4ccc(Oc5ccc(N)cc5)cc4)C4CC5CC(C4)CC3C5)cc2)cc1`, the TGI is > 100 µM with MOLT-4 leukemia; 17.4 µM in the assay with RPMI-8226 leukemia; > 92.4 µM in the assay on TK-10 renal; > 100 µM in the assay with NCI-H460 lung; 20.3 µM in the assay on SR leukemia; > 100 µM in the assay with K-562 leukemia. The TGI in the assay with MDA-MB-435 is 35.6 µM; in the assay on SN12C renal, 21.9 µM; with A549 NSCLC it was 42.2 µM; with BT-549 breast, > 49.2 µM; in the assay on HOP-62 NSCLC it was 32.3 µM; with HCT-116 colon it was 13.7 µM. Moreover, the TGI in the assay with UACC-257 melanoma is > 100 µM; with LOX IMVI melanoma it was > 28.4 µM; in the assay on SK-MEL-28 melanoma it was > 77.9 µM; with HT29 colon, 24.7 µM; in the assay with 786-0 renal, 19.1 µM; in the assay on SNB-19 CNS it was > 100 µM.

On to `Cc1ccc(C(=O)Cn2c(C(=O)/C=C/c3cccs3)nc3ccccc32)cc1`, for which the TGI in the assay with RPMI-8226 leukemia was > 100 µM; in the assay with TK-10 renal it was > 100 µM; with NCI-H460 lung, > 100 µM; with SR leukemia, 50.4 µM; with K-562 leukemia, > 100 µM; with MDA-MB-435, > 100 µM. Besides, the TGI in the assay on SN12C renal, in the assay on A549 NSCLC, with BT-549 breast, with HOP-62 NSCLC, with HCT-116 colon and with UACC-257 melanoma was > 100 µM in each case. For the same molecule, the TGI is > 100 µM in the assay on LOX IMVI melanoma; 43.7 µM with HCC-2998 colon; > 100 µM in the assay on SK-MEL-28 melanoma; > 100 µM in the assay with HT29 colon; > 100 µM with 786-0 renal; > 100 µM with SNB-19 CNS.

`CCCN(CCC)C(=S)N/N=C/c1ccccn1`: the TGI in the assay on RPMI-8226 leukemia stood at 0.566 µM; in the assay with TK-10 renal, 15.1 µM; with NCI-H460 lung, 0.187 µM; in the assay on SR leukemia it was 0.247 µM; in the assay on MDA-MB-435 it was 18.8 µM; with SN12C renal, 0.678 µM. Further, the TGI in the assay on A549 NSCLC is 11.9 µM; with BT-549 breast, 22.5 µM; with HOP-62 NSCLC, 3.18 µM; in the assay with HCT-116 colon, 1.58 µM; with UACC-257 melanoma it was 0.195 µM; with LOX IMVI melanoma it was 13.4 µM. Besides, the TGI in the assay on HCC-2998 colon is 19.6 µM; in the assay on SK-MEL-28 melanoma, > 63.9 µM; in the assay with HT29 colon, > 37.4 µM; with 786-0 renal, 1.07 µM; in the assay on SNB-19 CNS, 32.1 µM.
